Read-outs that look alike come from different tables or passages of the source.
Experiments:
[1] = tested on: G. duodenalis BRIS/91/HEPU/1279; assay: Primary Giardia screen at 10 µM (live-cell imaging, automated counting); assay type: cell-based, Giardia duodenalis; details: for inhibition at 10 µM: Giardia duodenalis
Method in brief: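 Singlicate, 10 μM final, 0.2% DMSO; sealed chambers, 3% O2/5% CO2/N2. Counts by live-cell imaging at 24 h and 48 h. % growth vs vehicle, media background subtracted; Z' per plate.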

[2] = tested on: methicillin resistant Staphylococcus aureus (ATCC 43300); assay: Anti-bacterial activity assay; assay type: cell-based; details: for inhibition at 50 µM: Staphylococcus aureus, ATCC43300, 50 µM, read-out: Bacterial Inhibition S. aureus
Description: (§1) The activity of compounds against methicillin resistant Staphylococcus aureus (ATCC 43300), Escherichia coli (ATCC 25922), Acinetobacter baumannii (ATCC 19606) and Klebsiella pneumoniae (ATCC 700603) was assessed at 50 µM in duplicate as previously described. In brief, mid-log phase bacteria cultures were added to 384-well microtiter plate wells containing compound to final cell density of 5 × 10^5 CFU/mL in 50 µL. Plates were then covered and incubated at 37 °C for 18 h without shaking. Inhibition of bacterial growth was determined by measuring absorbance at 600 nm (Tecan M1000 Pro monochromator plate reader) and calculating percentage growth inhibition relative to the negative media and bacteria without inhibitors. Vancomycin hydrochloride (Sigma-Aldrich an affiliate of Merck KGaA, Darmstadt, Germany, #861987) and colistin sulfate (Sigma-Aldrich an affiliate of Merck KGaA, Darmstadt, Germany, C4461) were on each plate as positive controls for Gram-positive (S. aureus) and Gram-negative (E. coli, A. baumannii and K. pneumoniae) bacteria, respectively.

[3] = tested on: Klebsiella pneumoniae (ATCC 700603); assay: Anti-bacterial activity assay; assay type: cell-based; details: ATCC700603, 50 µM, read-out: Bacterial Inhibition K. pneumoniae
Description: as §1

[4] = tested on: Acinetobacter baumannii (ATCC 19606); assay: Anti-bacterial activity assay; assay type: cell-based; details: ATCC19606, 50 µM
Description: as §1

[5] = tested on: Escherichia coli (ATCC 25922); assay: Anti-bacterial activity assay; assay type: cell-based; details: for inhibition at 50 µM: Escherichia coli, ATCC25922, 50 µM, read-out: Bacterial Inhibition E. coli
Description: as §1

[6] = tested on: G. duodenalis BRIS/91/HEPU/1279; assay: Giardia dose response assay, assemblage B; assay type: cell-based, Giardia duodenalis; details: for IC50: Giardia duodenalis
Method in brief: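 Assemblage B trophozoites (BRIS/91/HEPU/1279, 1.5 × 10^4 parasites/well) faced 8–12-point doubling dilutions in duplicate, incubated 48 h at 37 °C under 3% O2, 5% CO2 in N2. Parasites were imaged and counted at 24 and 48 h. Growth inhibition was taken versus vehicle controls minus background, with IC50 by log-linear interpolation.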

[7] = tested on: Neonatal foreskin fibroblast (NFF) cells; assay: Mammalian cell cytotoxicity assay (sulforhodamine B); assay type: cell-based, human; details: for inhibition at 20 µM: ±SD; for SI (48h Gd): Table S2, NFF vs 48 h Giardia IC50
Description: The selectivity of compounds of interest was assessed against NFF cells. Assays were performed using sulforhodamine B and included media only, negative (no compound, no DMSO), and vehicle (DMSO) controls as previously described. A chloroquine control plate was included in each assay. […] Repurchased SN00797640 was tested in dose–response from 100 µM against NFF. Selectivity indices (SI) were calculated by dividing mammalian cell IC50 values by G. duodenalis BRIS/91/HEPU/1279 IC50 values.

[8] = 24 h, first singlicate assay, read-out: % Inhibition n=1 24h
[9] = 24 h, re-assessment, read-out: % Inhibition n=2 24h
[10] = 24 h, read-out: Average % Inhibition 24h
[11] = 48 h, first singlicate assay, read-out: % Inhibition n=1 48h
[12] = 48 h, re-assessment, read-out: % Inhibition n=2 48h
[13] = 48 h, read-out: Average % Inhibition 48h
[14] = 24 h, read-out: G. duodenalis IC50 24h, Table S2, 24 h, ±SD, max 10 µM
[15] = 48 h, Table S2, 48 h, ±SD, max 10 µM, read-out: G. duodenalis IC50 48h

| Structure (SMILES) | IC50 [6, 14] [µM] | IC50 [6, 15] [µM] | inhibition at 10 µM [1, 8] [%] | inhibition at 10 µM [1, 9] [%] | inhibition at 10 µM [1, 10] [%] | inhibition at 10 µM [1, 11] [%] | inhibition at 10 µM [1, 12] [%] | inhibition at 10 µM [1, 13] [%] | inhibition at 50 µM [2] [%] | inhibition at 50 µM [3] [%] | inhibition at 50 µM [4] [%] | inhibition at 50 µM [5] [%] | inhibition at 20 µM ([7]; Homo sapiens, NFF) [%] | SI (48h Gd) [7] | further results |
| --- | --- | --- | --- | --- | --- | --- | --- | --- | --- | --- | --- | --- | --- | --- | --- |
| COc1ccc(NC(=O)c2ccc(-c3cc(NC4CCCCC4)ncn3)cc2)cc1 [SN00794765, COc1ccc(cc1)NC(=O)c1ccc(cc1)c1ncnc(NC2CCCCC2)c1] | > 10 | > 10 | 29.5 | 4.7 | 17.1 | 63.5 | 38.6 | 51 | 2.05 | 1.61 | -0.4 | 3.31 | 23.1 ± 8.6 | – | – |
| Cc1ccc(C(=O)Nc2cc(-c3nc(C)cs3)sc2C)cc1 [SN00798457, Cc1ccc(cc1)C(=O)Nc1cc(sc1C)c1scc(C)n1] | > 10 | > 10 | 39.3 | 16.7 | 28 | 60 | 52.2 | 56.1 | -16.6 | 0.63 | -2.12 | 1.98 | 16.3 ± 20.4 | – | – |
| COc1cccc(Nc2c3c(nc4ccccc24)CCC3)c1 [SN00784168, COc1cccc(c1)Nc1c2CCCc2nc2ccccc12] | > 10 | 4.58 ± 4.9 | 27.7 | 16.4 | 22 | 63.3 | 61.4 | 62.4 | -10.7 | -3.07 | -2.44 | 3.98 | 75.1 ± 0.3 | < 4 | – |
| O=S1(=O)CCC(n2cc(-c3cnn(-c4ccccc4)c3)cn2)C1 (centres unmarked) [SN00776738, O=S1(=O)CCC(C1)n1ncc(c1)c1cnn(c1)c1ccccc1] | > 10 | > 10 | 46.8 | 44.3 | 45.5 | 52.3 | 80.1 | 66.2 | -13.4 | 6.87 | -4.28 | 5.37 | 16 ± 0.6 | – | – |
| Cn1nccc1-c1cccc(-c2noc(-c3cccc(F)c3)n2)c1 [SN00798315, Fc1cccc(c1)c1onc(n1)c1cccc(c1)c1ccnn1C] | > 10 | 4.74 ± 6.4 | 24.1 | 11.1 | 17.6 | 66.9 | 61.2 | 64 | 1.07 | 9.56 | 1.7 | 2.55 | -9 ± 1.9 | > 4 | – |
| COc1ccc(Nc2cc(C)nc(N3CCN(C(=O)Nc4cccc(OC)c4)CC3)n2)cc1 [SN00793512, COc1ccc(cc1)Nc1cc(C)nc(n1)N1CCN(CC1)C(=O)Nc1cccc(OC)c1] | 8.74 | 8.63 ± 1.91 | 50.6 | 48.1 | 49.3 | 88.7 | 84.5 | 86.6 | 6.36 | 4.81 | 16.8 | 3.7 | 35.2 ± 2.5 | > 2 | – |

The next lines start with results.

| IC50 [6, 14] [µM] | IC50 [6, 15] [µM] | Structure (SMILES) | inhibition at 10 µM [1, 8] [%] | inhibition at 10 µM [1, 9] [%] | inhibition at 10 µM [1, 10] [%] | inhibition at 10 µM [1, 11] [%] | inhibition at 10 µM [1, 12] [%] | inhibition at 10 µM [1, 13] [%] | inhibition at 50 µM [2] [%] | inhibition at 50 µM [3] [%] | inhibition at 50 µM [4] [%] | inhibition at 50 µM [5] [%] | inhibition at 20 µM ([7]; Homo sapiens, NFF) [%] | SI (48h Gd) [7] | further results |
| --- | --- | --- | --- | --- | --- | --- | --- | --- | --- | --- | --- | --- | --- | --- | --- |
| 1.76 ± 0.35 | 1.01 ± 0.29 | COc1ccc(C)cc1N1C(=O)C(c2ccccc2)C(c2nc3ccccc3s2)=C1N (centres unmarked) [SN00776374, COc1ccc(C)cc1N1C(=C(c2nc3ccccc3s2)C(c2ccccc2)C1=O)N] | 90.5 | 90 | 90.3 | 95.8 | 97.6 | 96.7 | 16.6 | 11.7 | 13.3 | 2.94 | 100.4 ± 0.2 | < 20 | Average % Inhibition 48h ([1]; 48 h): > 90% |
| 0.24 ± 0.04 | – | CC1CCN(C(=O)c2oc3ccccc3c2NC(=O)c2ccc([N+](=O)[O-])o2)CC1 [SN00788467] | 93.2 | 82.3 | 87.7 | 93.9 | 96.4 | 95.2 | 99.1 | -1.21 | 3.19 | 3.73 | – | > 166 | Average % Inhibition 48h ([1]; 48 h): > 90%; Bacterial Inhibition S. aureus ([2]; 50 µM): 99%; selectivity index over bacteria ([5]; E. coli, A. baumannii and K. pneumoniae / bacteria, Table S2): > 800; fold more potent than metronidazole ([6]; 48 h IC50): > 45 fold; IC50 ([6]; 48 h, BRIS/91/HEPU/1279, 48 h, mean ± SD, read-out: IC50 Giardia (48 h)): 0.06 µM; IC50 ([7]; Homo sapiens, NFF, mean ± SD, read-out: IC50 NFF): > 10 µM; Selectivity ([7]; NFF IC50 divided by G. duodenalis BRIS/91/HEPU/1279 IC50): >166 |
| 3.1 ± 2.29 | 3.27 ± 4.08 | CC(=O)Nc1ccc([N+](=O)[O-])c2nonc12 [SN00783960, CC(=O)Nc1ccc(N(=O)=O)c2nonc12] | 53.9 | 36.2 | 45.1 | 66.5 | 60.2 | 63.3 | 95.3 | 19.9 | 6.26 | 12 | 98.5 ± 3.8 | < 6 | – |
| > 10 | 5.48 | Cc1ncc([N+](=O)[O-])n1Cc1csc(Cc2ccccc2)n1 [SN00780011, O=N(=O)c1cnc(C)n1Cc1csc(Cc2ccccc2)n1] | 33.3 | 27 | 30.1 | 54.9 | 79.2 | 67.1 | 11.7 | 16.4 | 10.5 | 8.95 | 9.2 ± 12.4 | > 3 | – |
| 5.35 | 7.82 | O=C(NC1CCCCC1)c1nc(Nc2ccccc2)c2ccccc2n1 [SN00792461, O=C(NC1CCCCC1)c1nc(Nc2ccccc2)c2ccccc2n1] | 44.7 | 74.4 | 59.5 | 57.7 | 88.5 | 73.1 | 8.09 | 12.6 | 10.8 | 3.63 | 21.3 ± 27.1 | > 2 | – |
| 6.87 ± 1.88 | 1.86 ± 2.52 | O=[N+]([O-])c1cc(F)ccc1Sc1nnc(N2CCOCC2)s1 [SN00781107, Fc1ccc(Sc2nnc(s2)N2CCOCC2)c(c1)N(=O)=O] | 34 | 27.7 | 30.8 | 64.2 | 57.4 | 60.8 | 4.13 | 10.6 | 3.43 | 2.28 | -19.8 ± 44.9 | – | – |

From article PMC9775191, “A Subset Screen of the Compounds Australia Scaffold Library Identifies 7-Acylaminodibenzoxazepinones as Potent and Selective Hits for Anti-Giardia Drug Discovery” (Biomedicines, 2022)
